# pEC50: −log10 of the molar value.
# System: HBV (encapsidated HBV DNA, HepG2.2.15 cells)
# Test: HBV replication inhibition assay, BDNA assay in HepG2.2.15 cells
# Format: cell-based
# Details: Hepatitis B virus, HepG2.2.15, Activity in BDNA-assay
# Method in brief: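 HepG2.2.15 cells (stably integrated HBV, 40,000/well) treated with serially diluted compound in 0.5% DMSO for 6 days, medium and compound refreshed at day 3. DNase-treated supernatant lysed with proteinase K; encapsidated HBV DNA quantified by bDNA, percent inhibition versus DMSO controls, EC50 by nonlinear fit.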
row,Compound,pEC50
1,"CN1CC(F)Cn2nc3c(c2C1=O)CN(C(=O)Nc1ccc(F)c(Br)c1)CC3 (stereo not drawn) [Compound 007, N-(3-bromo-4-fluorophenyl)-8-fluoro-10-methyl-11-oxo-1,3,4,7,8,9,10,11-octahydro-2H-pyrido[4′,3′:3,4]pyrazolo[1,5-a][1,4]diazepine-2-carboxamide]",7.00 to 9.00
2,"CN1CC(F)Cn2nc3c(c2C1=O)CN(C(=O)Nc1ccnc(Br)c1F)CC3 (stereo not drawn) [Compound 008, N-(2-bromo-3-fluoropyridin-4-yl)-8-fluoro-10-methyl-11-oxo-1,3,4,7,8,9,10,11-octahydro-2H-pyrido[4′,3′:3,4]pyrazolo[1,5-a][1,4]diazepine-2-carboxamide]",7.00 to 9.00
3,"CN1CC(F)Cn2nc3c(c2C1=O)CN(C(=O)Nc1ccc(F)c(C#N)c1)CC3 (stereo not drawn) [Compound 009, N-(3-cyano-4-fluorophenyl)-8-fluoro-10-methyl-11-oxo-1,3,4,7,8,9,10,11-octahydro-2H-pyrido[4′,3′:3,4]pyrazolo[1,5-a][1,4]diazepine-2-carboxamide]",7.00 to 9.00
4,"Cc1cc(NC(=O)N2CCc3nn4c(c3C2)C(=O)N(C)CC(F)C4)ccc1F (stereo not drawn) [Compound 010, 8-fluoro-N-(4-fluoro-3-methylphenyl)-10-methyl-11-oxo-1,3,4,7,8,9,10,11-octahydro-2H-pyrido[4′,3′:3,4]pyrazolo[1,5-a][1,4]diazepine-2-carboxamide]",7.00 to 9.00
5,"CN1CC(F)Cn2nc3c(c2C1=O)CN(C(=O)Nc1ccc(F)c(C(F)(F)F)c1)CC3 (stereo not drawn) [Compound 011, 8-fluoro-N-(4-fluoro-3-(trifluoromethyl)phenyl)-10-methyl-11-oxo-1,3,4,7,8,9,10,11-octahydro-2H-pyrido[4′,3′:3,4]pyrazolo[1,5-a][1,4]diazepine-2-carboxamide]",7.00 to 9.00
6,"CN1CC(F)Cn2nc3c(c2C1=O)CN(C(=O)Nc1cc(Cl)c(F)cc1F)CC3 (stereo not drawn) [Compound 012, N-(5-chloro-2,4-difluorophenyl)-8-fluoro-10-methyl-11-oxo-1,3,4,7,8,9,10,11-octahydro-2H-pyrido[4′,3′:3,4]pyrazolo[1,5-a][1,4]diazepine-2-carboxamide]",7.00 to 9.00
7,"CN1CC(F)Cn2nc3c(c2C1=O)CN(C(=O)Nc1cc(Br)c(F)cc1F)CC3 (stereo not drawn) [Compound 013, N-(5-bromo-2,4-difluorophenyl)-8-fluoro-10-methyl-11-oxo-1,3,4,7,8,9,10,11-octahydro-2H-pyrido[4′,3′:3,4]pyrazolo[1,5-a][1,4]diazepine-2-carboxamide]",7.00 to 9.00
8,"CC1CN(C)C(=O)c2c3c(nn2C1)CCN(C(=O)Nc1ccc(F)c(Cl)c1)C3 (stereo not drawn) [Compound 014, N-(3-chloro-4-fluoro-phenyl)-8,10-dimethyl-11-oxo-1,3,4,7,8,9-hexahydropyrido[2,3]pyrazolo[2,4-b][1,4]diazepine-2-carboxamide]",7.00 to 9.00
9,"CN1CCCn2nc3c(c2C1=O)CN(C(=O)Nc1ccc(F)c(Cl)c1)CC3 [Compound 015, N-(3-chloro-4-fluoro-phenyl)-10-methyl-11-oxo-1,3,4,7,8,9-hexahydropyrido [2,3]pyrazolo[2,4-b][1,4]diazepine-2-carboxamide]",7.00 to 9.00
10,"CCOC1CN(C)C(=O)c2c3c(nn2C1)CCN(C(=O)Nc1ccc(F)c(Cl)c1)C3 (stereo not drawn) [Compound 017, N-(3-chloro-4-fluorophenyl)-8-ethoxy-10-methyl-11-oxo-1,3,4,7,8,9,10,11-octahydro-2H-pyrido[4′,3′:3,4]pyrazolo[1,5-a][1,4]diazepine-2-carboxamide]",7.00 to 9.00
11,"CN1CC(N)Cn2nc3c(c2C1=O)CN(C(=O)Nc1ccc(F)c(Cl)c1)CC3 (stereo not drawn) [Compound 019, 8-amino-N-(3-chloro-4-fluorophenyl)-10-methyl-11-oxo-1,3,4,7,8,9,10,11-octahydro-2H-pyrido[4′,3′:3,4]pyrazolo[1,5-a][1,4]diazepine-2-carboxamide]",6.30 to 7.00
12,"CN1CC(N(C)C)Cn2nc3c(c2C1=O)CN(C(=O)Nc1ccc(F)c(Cl)c1)CC3 (stereo not drawn) [Compound 020, N-(3-chloro-4-fluorophenyl)-8-(dimethylamino)-10-methyl-11-oxo-1,3,4,7,8,9,10,11-octahydro-2H-pyrido[4′,3′:3,4]pyrazolo[1,5-a][1,4]diazepine-2-carboxamide]",7.00 to 9.00
13,"CN1CC(N2CCOCC2)Cn2nc3c(c2C1=O)CN(C(=O)Nc1ccc(F)c(Cl)c1)CC3 (stereo not drawn) [Compound 021, N-(3-chloro-4-fluorophenyl)-10-methyl-8-morpholino-11-oxo-1,3,4,7,8,9,10,11-octahydro-2H-pyrido[4′,3′:3,4]pyrazolo[1,5-a][1,4]diazepine-2-carboxamide]",6.30 to 7.00
14,"CN1CC(N2CC(F)(F)C2)Cn2nc3c(c2C1=O)CN(C(=O)Nc1ccc(F)c(Cl)c1)CC3 (stereo not drawn) [Compound 022, N-(3-chloro-4-fluorophenyl)-8-(3,3-difluoroazetidin-1-yl)-10-methyl-11-oxo-1,3,4,7,8,9,10,11-octahydro-2H-pyrido[4′,3′:3,4]pyrazolo[1,5-a][1,4]diazepine-2-carboxamide]",6.30 to 7.00
15,"CN1CC(N2CCC2)Cn2nc3c(c2C1=O)CN(C(=O)Nc1ccc(F)c(Cl)c1)CC3 (stereo not drawn) [Compound 023, 8-(azetidin-1-yl)-N-(3-chloro-4-fluorophenyl)-10-methyl-11-oxo-1,3,4,7,8,9,10,11-octahydro-2H-pyrido[4′,3′:3,4]pyrazolo[1,5-a][1,4]diazepine-2-carboxamide]",7.00 to 9.00
16,"CN1CC(N2CCCC2)Cn2nc3c(c2C1=O)CN(C(=O)Nc1ccc(F)c(Cl)c1)CC3 (stereo not drawn) [Compound 024, N-(3-chloro-4-fluorophenyl)-10-methyl-11-oxo-8-(pyrrolidin-1-yl)-1,3,4,7,8,9,10,11-octahydro-2H-pyrido[4′,3′:3,4]pyrazolo[1,5-a][1,4]diazepine-2-carboxamide]",7.00 to 9.00
17,"CSC1CN(C)C(=O)c2c3c(nn2C1)CCN(C(=O)Nc1ccc(F)c(Cl)c1)C3 (stereo not drawn) [Compound 025, N-(3-chloro-4-fluorophenyl)-10-methyl-8-(methylthio)-11-oxo-1,3,4,7,8,9,10,11-octahydro-2H-pyrido[4′,3′:3,4]pyrazolo[1,5-a][1,4]diazepine-2-carboxamide]",7.00 to 9.00
18,"CN1CC(S(C)(=O)=O)Cn2nc3c(c2C1=O)CN(C(=O)Nc1ccc(F)c(Cl)c1)CC3 (stereo not drawn) [Compound 027, N-(3-chloro-4-fluoro-phenyl)-10-methyl-8-methylsulfonyl-11-oxo-1,3,4,7,8,9-hexahydropyrido[2,3]pyrazolo[2,4-b][1,4]diazepine-2-carboxamide]",7.00 to 9.00
19,"COC(=O)CC1CN(C)C(=O)c2c3c(nn2C1)CCN(C(=O)Nc1ccc(F)c(Cl)c1)C3 (stereo not drawn) [Compound 028, methyl 2-(2-((3-chloro-4-fluorophenyl)carbamoyl)-10-methyl-11-oxo-1,3,4,7,8,9,10,11-octahydro-2H-pyrido[4′,3′:3,4]pyrazolo[1,5-a][1,4]1diazepin-8-yl)acetate]",6.30 to 7.00
20,CN1CC(CCO)Cn2nc3c(c2C1=O)CN(C(=O)Nc1ccc(F)c(Cl)c1)CC3 (stereo not drawn) [Compound 029],6.30 to 7.00
21,"CCOC(=O)C1CN(C)C(=O)c2c3c(nn2C1)CCN(C(=O)Nc1ccc(F)c(Cl)c1)C3 (stereo not drawn) [Compound 030, ethyl 2-((3-chloro-4-fluorophenyl)carbamoyl)-10-methyl-11-oxo-2,3,4,7,8,9,10,11-octahydro-1H-pyrido[4′,3′:3,4]pyrazolo[1,5-a][1,4]diazepine-8-carboxylate]",< 6.00
22,"CNC(=O)C1CN(C)C(=O)c2c3c(nn2C1)CCN(C(=O)Nc1ccc(F)c(Cl)c1)C3 (stereo not drawn) [Compound 031, N2-(3-chloro-4-fluorophenyl)-N8,10-dimethyl-11-oxo-1,3,4,7,8,9,10,11-octahydro-2H-pyrido[4′,3′:3,4]pyrazolo[1,5-a][1,4]diazepine-2,8-dicarboxamide]",7.00 to 9.00
23,"CN(C)C(=O)C1CN(C)C(=O)c2c3c(nn2C1)CCN(C(=O)Nc1ccc(F)c(Cl)c1)C3 (stereo not drawn) [Compound 032, N2-(3-chloro-4-fluorophenyl)-N8,N8,10-trimethyl-11-oxo-1,3,4,7,8,9,10,11-octahydro-2H-pyrido[4′,3′:3,4]pyrazolo [1,5-a][1,4]diazepine-2,8-dicarboxamide]",6.30 to 7.00
24,"CN1CC(C(C)(C)O)Cn2nc3c(c2C1=O)CN(C(=O)Nc1ccc(F)c(Cl)c1)CC3 (stereo not drawn) [Compound 033, N-(3-chloro-4-fluorophenyl)-8-(2-hydroxypropan-2-yl)-10-methyl-11-oxo-3,4,8,9,10,11-hexahydro-1H-pyrido[4′,3′:3,4]pyrazolo[1,5-a][1,4]diazepine-2 (7H)-carboxamide]",7.00 to 9.00
25,"CC(O)C1CN(C)C(=O)c2c3c(nn2C1)CCN(C(=O)Nc1ccc(F)c(Cl)c1)C3 (stereo not drawn) [Compound 034, N-(3-chloro-4-fluorophenyl)-8-(1-hydroxyethyl)-10-methyl-11-oxo-1,3,4,7,8,9,10,11-octahydro-2H-pyrido[4′,3′:3,4]pyrazolo[1,5-a][1,4]diazepine-2-carboxamide]",6.30 to 7.00
26,CCC(O)C1CN(C)C(=O)c2c3c(nn2C1)CCN(C(=O)Nc1ccc(F)c(Cl)c1)C3 (stereo not drawn) [Compound 035],7.00 to 9.00
27,CN1CC(C(O)C2CC2)Cn2nc3c(c2C1=O)CN(C(=O)Nc1ccc(F)c(Cl)c1)CC3 (stereo not drawn) [Compound 036],7.00 to 9.00
28,"CN1CC(C(F)F)Cn2nc3c(c2C1=O)CN(C(=O)Nc1ccc(F)c(Cl)c1)CC3 (stereo not drawn) [Compound 037, N-(3-chloro-4-fluorophenyl)-8-(difluoromethyl)-10-methyl-11-oxo-1,3,4,7,8,9,10,11-octahydro-2H-pyrido[4′,3′:3,4]pyrazolo[1,5-a][1,4]diazepine-2-carboxamide]",7.00 to 9.00
29,"O=C(Nc1ccc(F)c(Cl)c1)N1CCc2nn3c(c2C1)C(=O)N(CC(F)F)CCC3 [Compound 038, N-(3-chloro-4-fluorophenyl)-10-(2,2-difluoroethyl)-11-oxo-1,3,4,7,8,9,10,11-octahydro-2H-pyrido[4′,3′:3,4]pyrazolo[1,5-a][1,4]diazepine-2-carboxamide]",7.00 to 9.00
30,"CC1CCn2nc3c(c2C(=O)N1C)CN(C(=O)Nc1ccc(F)c(Cl)c1)CC3 (stereo not drawn) [Compound 039, N-(3-chloro-4-fluorophenyl)-9,10-dimethyl-11-oxo-1,3,4,7,8,9,10,11-octahydro-2H-pyrido[4′,3′:3,4]pyrazolo[1,5-a][1,4]diazepine-2-carboxamide]",7.00 to 9.00

# — US10975077B2 (Novira Therapeutics, Inc., priority 2016, dated 2021)
